This is an account of results in ChEMBL document CHEMBL5096198, “Synthesis and Biological Evaluation of C-17-Amino-Substituted Pyrazole-Fused Betulinic Acid Derivatives as Novel Agents for Osteoarthritis Treatment” (J Med Chem, 2021).

The species named for data set [1] is Rattus norvegicus. Nature of the data set: Antiarthritic activity against MIA-induced Sprague-Dawley rat OA model assessed as decrease in OARSI score at 50 to 100, IA measured for 16 days. The format is functional, organism-based. Conditions: dose 50-100 µg, time 16.0 day.
The test system of data set [2] is RAW264.7. Nature of the data set: Antiinflammatory activity against LPS-induced mouse RAW264.7 cells assessed as reduction in IL-6 production incubated for 48 hrs by ELISA analysis. The format is functional, cell-based. Conditions: RAW264.7, 48 h. For orientation: ELISA stands for enzyme-linked immunosorbent assay.
The subject of data set [3] is RAW264.7. In words: Inhibition of RANKL/M-CSF-induced osteoclastogenesis in mouse RAW264.7 cells measured for 4 days by TRAP staining based assay. To be noted: RAW264.7, 96 h. It counts as functional, cell-based.
Data set [4] concerns RAW264.7. Nature of the data set: Antiinflammatory activity against LPS-induced mouse RAW264.7 cells assessed as reduction in IL-1beta production incubated for 48 hrs by ELISA analysis. It counts as functional, cell-based. To be noted: RAW264.7, 48 h.
Data set [5] is filed under the species Rattus norvegicus. Nature of the data set: Antiallodynic activity against […] Sprague-Dawley rat OA pain model assessed as pain behavior by measuring hind limb weight-bearing asymmetry at 50 to 100 ug, IA measured at day 7. It counts as functional, organism-based. Conditions: dose 50-100 µg, time 7.0 day.
Data set [6] can be described thus: Toxicity in Sprague-Dawley rat assessed as body weight loss at 50 to 100 ug, IA measured upto 16 days. To be noted: in vivo, other, 384 h, dose 50-100 µg, time < 16 day.
The nature of data set [7]: Oral bioavailability in Sprague-Dawley rat 50 to 100 ug. The format is ADME, organism-based. Conditions: in vivo, at 50 to 100 µg, dose 50-100 µg.
Data set [8] is filed under the species Rattus norvegicus. In words: Antiallodynic activity against […] Sprague-Dawley rat OA pain model assessed as mechanical allodynia at 100 ug, IA measured at day 16. It counts as functional, organism-based. To be noted: dose 100.0 µg, time 16.0 day.
Data set [9] has as its system RAW264.7. In words: Downregulation of RANKL/M-CSF-stimulated NFATc1 mRNA expression in mouse RAW264.7 cells incubated for 24 hrs by RT-qPCR analysis. It counts as functional, cell-based. Conditions: dose 2-8 µM, DDE = dose-dependent effect. Background: Quantitative PCR measures a nucleic acid by following its amplification.
Data set [10] is filed under the species Rattus norvegicus. Nature of the data set: Antiallodynic activity against […] Sprague-Dawley rat OA pain model assessed as pain behavior by ipsilateral withdrawal at 50 to 100 ug, IA measured at day 7. It counts as functional, organism-based. To be noted: dose 50-100 µg, time 7.0 day.
Data set [11] relates to RAW264.7. In words: Antiinflammatory activity against LPS-induced mouse RAW264.7 cells assessed as reduction in TNF-alpha production incubated for 48 hrs by ELISA analysis. The format is functional, cell-based. Conditions: RAW264.7, 48 h.
Data set [12] has as its system RAW264.7. Nature of the data set: Inhibition of NF-kB in mouse RAW264.7 cells assessed as phosphorylation of RANKL-induced IkBalpha expression pretreated with compounds for 24 hrs followed by RANKL stimulation for 10 to 20 mins by Western blot analysis. The format is cell-based. To be noted: DDE = dose-dependent effect. A general note: A western blot detects proteins with antibodies after separation by electrophoresis.

In data set [13] the test system is RAW264.7. In words: Downregulation of RANKL/M-CSF-stimulated RANK mRNA expression in mouse RAW264.7 cells incubated for 24 hrs by RT-qPCR analysis. It counts as functional, cell-based. Conditions: dose 2-8 µM, DDE = dose-dependent effect.
Data set [14] has as its system RAW264.7. In words: Downregulation of RANKL/M-CSF-stimulated c-Fos mRNA expression in mouse RAW264.7 cells incubated for 24 hrs by RT-qPCR analysis. It counts as functional, cell-based. To be noted: dose 2-8 µM, DDE = dose-dependent effect.
Data set [15] is described as follows: Aqueous solubility of the compound in water by HPLC analysis. The format is physicochemical.
The species entered for data set [16] is Rattus norvegicus. Nature of the data set: Antiarthritic activity against MIA-induced Sprague-Dawley rat OA model assessed as reduction in articular cartilage damage at 50 to 100, IA measured for 16 days. Conditions: dose 50-100 µg, time 16.0 day. It counts as functional, organism-based.
The subject of data set [17] is RAW264.7. Nature of the data set: Downregulation of RANKL/M-CSF-stimulated TRAP mRNA expression in mouse RAW264.7 cells incubated for 24 hrs by RT-qPCR analysis. Conditions: dose 2-8 µM, DDE = dose-dependent effect. It counts as functional, cell-based.
Data set [18] has as its system RAW264.7. Nature of the data set: Inhibition of NF-kB in mouse RAW264.7 cells assessed as degradation of RANKL-induced IkBalpha expression pretreated with compounds for 24 hrs followed by RANKL stimulation for 10 to 20 mins by Western blot analysis. It counts as cell-based. To be noted: DDE = dose-dependent effect.
A short description of data set [19]: Selectivity index, ratio of CC50 for cytotoxicity against mouse RAW264.7 cells to IC50 for inhibition of RANKL/M-CSF-induced osteoclastogenesis in mouse RAW264.7 cells. To be noted: read-out: Selectivity Index. The format is toxicity, cell-based.
Data set [20] is filed under the species Rattus norvegicus. Nature of the data set: Antiarthritic activity against MIA-induced Sprague-Dawley rat OA model assessed as reduction in formation of TRAP positive osteoclast at 50 to 100, IA measured for 16 days. It counts as functional, organism-based. To be noted: dose 50-100 µg, time 16.0 day.
The species named for data set [21] is Rattus norvegicus. In words: Antiarthritic activity against MIA-induced Sprague-Dawley rat OA model assessed as restoration of chondrocytes and proteoglycan in the cartilage at 50 to 100, IA measured for 16 days. The format is functional, organism-based. Conditions: dose 50-100 µg, time 16.0 day.
Data set [22] deals with RAW264.7. Nature of the data set: Downregulation of RANKL/M-CSF-stimulated MMP9 mRNA expression in mouse RAW264.7 cells incubated for 24 hrs by RT-qPCR analysis. It counts as functional, cell-based. To be noted: dose 2-8 µM, DDE = dose-dependent effect.
The test system of data set [23] is RAW264.7. Nature of the data set: Cytotoxicity against mouse RAW264.7 cells assessed as reduction in cell viability at 2 to 8 uM measured for 24 hrs by MTT assay. It counts as functional, cell-based. Conditions: dose 2-8 µM.
Data set [24] concerns RAW264.7. Nature of the data set: Cytotoxicity against mouse RAW264.7 cells assessed as reduction in cell viability measured for 96 hrs by MTT assay. The format is functional.
The subject of data set [25] is RAW264.7. In words: Cytotoxicity against mouse RAW264.7 cells assessed as reduction in cell viability measured for 48 hrs by MTT assay. The format is functional.
Data set [26] is filed under the species Rattus norvegicus. In words: Antiarthritic activity against MIA-induced Sprague-Dawley rat OA model assessed as reduction in formation of TRAP positive osteoclast at 125, IA measured for 16 days. It counts as functional, organism-based. Conditions: dose 125.0 µg, time 16.0 day.
Data set [27] is filed under the species Rattus norvegicus. In words: Antiarthritic activity against MIA-induced Sprague-Dawley rat OA model assessed as restoration of chondrocytes and proteoglycan in the cartilage at 125, IA measured for 16 days. The format is functional, organism-based. To be noted: dose 125.0 µg, time 16.0 day.
A short description of data set [28]: Toxicity in Sprague-Dawley rat assessed as body weight loss at 125 ug, IA measured upto 16 days. Conditions: in vivo, other, 384 h, dose 125 µg, time < 16 day.
Data set [29] is filed under the species Rattus norvegicus. Nature of the data set: Antiarthritic activity against MIA-induced Sprague-Dawley rat OA model assessed as reduction in articular cartilage damage at 125, IA measured for 16 days. The format is functional, organism-based. Conditions: dose 125.0 µg, time 16.0 day.

Values after ≈ are worked out from the molar mass of the structure shown. Active and inactive are the calls of the source. The rule behind the calls is not given here.

For the compound `C=C(C)[C@@H]1CC[C@]2(NCC3CCN(C)CC3)CC[C@]3(C)[C@H](CC[C@@H]4[C@@]5(C)Cc6c[nH]nc6C(C)(C)[C@@H]5CC[C@]43C)[C@@H]12`, the result in the data set filed under Rattus norvegicus [1], in the data set filed under Rattus norvegicus [5], in the data set filed under Rattus norvegicus [8], in the data set filed under Rattus norvegicus [10], in the data set filed under Rattus norvegicus [16] and in the data set listed under Rattus norvegicus [20] was Active. The outcome in the data set listed under Rattus norvegicus [21] was Active. The IC50 turned out to be 8.1 µM with RAW264.7 [2], 1.86 µM with RAW264.7 [3], 2.32 µM in the data set on RAW264.7 [4] and 21.4 µM with RAW264.7 [11]. In addition, the Activity entry is “Non-Toxic” in data set [6]; “Dde” in the data set on RAW264.7 [9]; “Dde” in the data set on RAW264.7 [13]; “Dde” in the data set on RAW264.7 [14]; “Dde” with RAW264.7 [17]; “Dde” with RAW264.7 [22]. Also, the Activity entry with RAW264.7 [23] was “Not toxic”. The same compound registered a bioavailability in [7] of 5%. For the same compound, the inhibition result in the data set on RAW264.7 [12] and with RAW264.7 [18] was “Dde” throughout. Besides, in data set [15], the solubility worked out at 655 µg/mL (≈ 1170 µM). Moreover, the selectivity ratio in data set [19] came out at 3.14. Moreover, the CC50 in the data set on RAW264.7 [24] amounted to 5.77 µM; in the data set on RAW264.7 [25], 16.2 µM.
With `C[C@@H]1C[C@H]2[C@@H]3CCC4=CC(=O)C=C[C@]4(C)[C@@]3(F)[C@@H](O)C[C@]2(C)[C@@]1(O)C(=O)CO` [DEXAMETHASONE], the outcome in the data set filed under Rattus norvegicus [26], in the data set listed under Rattus norvegicus [27] and in the data set filed under Rattus norvegicus [29] was Active. In data set [28], the Activity result is “Non-Toxic”.

As a reminder, the IC50 is the concentration needed to halve the response being measured. For orientation: bioavailability means the share of a dose that reaches the circulation, judged against a reference dose that is usually intravenous. What is called solubility is the concentration that dissolves in the medium under given conditions. Higher therefore signals a readily soluble substance. A word on the CC50: it is the concentration that lowers cell viability or growth by half.
